Assay results: US10195179B2, “Spiro-lactam NMDA receptor modulators and uses thereof” (Aptinyx Inc., priority 2016, dated 2019)
Read-outs that look alike come from different tables or passages of the source.

How the values were obtained:
[1] = Plasma protein binding assay, rat; type: in vitro ADME; details: read-out: Plasma Protein binding (% Bound) Plasma rat (converted)
Protocol: Bound drug concentration in the brain was also investigated, and plasma protein binding assays were conducted. The following table (% bound) indicates results for Compound AA and Compound BB.

[2] = Bioavailability and CSF/brain/plasma exposure after PO administration; type: in vivo, Sprague Dawley rats; details: rat; for Kp: male, Sprague Dawley, 10 mg/kg PO
Protocol: The bioavailablity of Compound BB was investigated following PO administration. CSF, brain and plasma samples were analyzed following dosing with compound BB (10 mg/kg). The following table indicates the bioavailablity and CSF/plasma and brain/plasma ratios.
Sprague Dawley rats were dosed intravenously with 2 mg/kg of Compound AA. A second group of Sprague Dawley rats was dosed per os with 10 mg/kg of compound AA. Plasma samples were drawn over a 24 h period and analyzed for Compound AA. FIG. 3A presents the mean plasma concentration-time profile of Compound AA following the single intraveneous (2 mg/kg) and oral (10 mg/kg) dose administration in male Sprague Dawley rats over the 24 hour period.
In another experiment. Sprague Dawley rats were dosed intravenously with 2 mg/kg of Compound BB. A second group of Sprague Dawley rats was dosed per os with 10 mg/kg of compound BB. Plasma samples were drawn over a 24 h period and analyzed for Compound BB. FIG. 3B presents the mean plasma concentration-time profile of Compound BB following the single intraveneous (2 mg/kg) and oral (10 mg/kg) dose administration in male Sprague Dawley rats over the 24 hour period.
In another experiment, Sprague Dawley rats were dosed per os with 10 mg/kg of Compound BB. Plasma, brain, and CSF samples were analyzed at various time points over a 24 hour period.

NR2D = NR2D (Homo sapiens, UniProt O15399); test: Potentiation of [3H]MK-801 binding, wild-type NMDAR2D; design: species or system rat
NR2D, sequence (O15399 28-1336, species assumed, other chains not shown): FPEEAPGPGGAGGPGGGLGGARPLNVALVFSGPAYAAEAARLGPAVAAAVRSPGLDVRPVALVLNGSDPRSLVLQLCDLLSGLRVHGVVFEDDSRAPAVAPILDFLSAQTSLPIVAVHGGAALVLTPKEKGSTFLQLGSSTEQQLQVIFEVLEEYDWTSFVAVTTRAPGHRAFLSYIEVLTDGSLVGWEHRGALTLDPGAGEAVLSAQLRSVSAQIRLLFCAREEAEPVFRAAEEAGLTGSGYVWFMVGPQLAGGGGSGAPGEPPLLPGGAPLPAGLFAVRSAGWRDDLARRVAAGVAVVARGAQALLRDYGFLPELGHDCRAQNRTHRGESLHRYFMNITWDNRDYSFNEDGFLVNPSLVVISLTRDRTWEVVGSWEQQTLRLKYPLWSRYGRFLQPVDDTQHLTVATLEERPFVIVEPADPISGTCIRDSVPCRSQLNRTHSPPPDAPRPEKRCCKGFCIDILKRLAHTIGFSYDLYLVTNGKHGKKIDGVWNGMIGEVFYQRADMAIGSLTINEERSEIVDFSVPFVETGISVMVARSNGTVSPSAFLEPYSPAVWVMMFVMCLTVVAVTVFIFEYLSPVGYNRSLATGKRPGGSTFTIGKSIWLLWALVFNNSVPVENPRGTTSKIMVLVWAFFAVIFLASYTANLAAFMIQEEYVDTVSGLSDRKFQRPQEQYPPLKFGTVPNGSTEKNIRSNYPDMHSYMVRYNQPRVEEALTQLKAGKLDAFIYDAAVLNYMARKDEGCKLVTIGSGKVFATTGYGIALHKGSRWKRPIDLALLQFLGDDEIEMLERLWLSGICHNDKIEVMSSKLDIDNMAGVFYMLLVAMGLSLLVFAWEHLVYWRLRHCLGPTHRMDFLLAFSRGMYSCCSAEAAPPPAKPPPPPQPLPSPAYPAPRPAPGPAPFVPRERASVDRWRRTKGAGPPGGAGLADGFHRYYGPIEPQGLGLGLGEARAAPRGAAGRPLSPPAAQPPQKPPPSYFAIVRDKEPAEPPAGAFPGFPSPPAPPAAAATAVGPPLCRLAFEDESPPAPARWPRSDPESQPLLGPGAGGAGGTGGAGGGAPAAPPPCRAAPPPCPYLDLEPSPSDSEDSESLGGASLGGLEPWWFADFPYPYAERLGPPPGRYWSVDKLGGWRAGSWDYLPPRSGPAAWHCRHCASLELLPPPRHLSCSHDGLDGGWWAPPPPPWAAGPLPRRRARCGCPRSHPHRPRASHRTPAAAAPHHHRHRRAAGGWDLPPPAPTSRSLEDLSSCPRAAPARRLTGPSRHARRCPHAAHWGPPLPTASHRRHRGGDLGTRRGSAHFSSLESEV
Protocol: Assays were conducted as described by Moskal et al., “GLYX-13: a monoclonal antibody-derived peptide that acts as an N-methyl-D-aspartate receptor modulator,” Neuropharmacology, 49, 1077-87, 2005. The potentiation of [^3H]MK-801 binding (5 nM; 22.5 Ci/mmol) to well washed rat cortical membranes (200 μg) was measured under non-equilibrium conditions (15 min @ 25° C.) in the presence of increasing concentrations of Compound AA or Compound BB.
FIG. 2A depicts the potentiation of [^3H]MK-801 binding for wild-type NMDAR2 subtypes in the presence of Compound AA. FIG. 2B depicts the potentiation of [^3H]MK-801 binding for wild-type NMDAR2 subtypes in the presence of Compound BB. The following table depicts the results (P means potency and A means activity): […]

SD rats = test: Novelty-induced hypophagia (NIH) test; type: in vivo, rat; details: 1-100 μg/kg PO, 1 h before test
From the text: This Example relates to the assessment of the anxiolytic effect of treatment in the stress-induced anxiety model, novelty induced hypophagia. This assay is also sensitive to the rapid acting antidepressants ketamine and GLYX-13 (Li et al., “mTOR-dependent synapse formation underlies the rapid antidepressant effects of NMDA antagonists,” Science 329:959-964, 2010; and Burgdorf et al., 2013). See also Bodnoff et al., “A comparison of the effects of diazepam versus several typical and atypical anti-depressant drugs in an animal model of anxiety,” Psychopharmacology, 97:277-279, 1989.
Testing was conducted as described by (Burgdorf et al., 2013). […] Animals were food deprived overnight before testing, and lab chow was placed in the center chamber of an open field (40×40×20 cm) for 10 min under dim red lighting. Between testing each animal, feces and urine were removed from the apparatus. After NIH testing, the latency to eat in the animal's home cage was determined as a control to ensure the effect on eating is specific to the novel environment. Animals were videotaped, and latency (sec) for the animal to take the first bite of food was manually scored offline.
A single point per dose group that was 2 or more standard deviations from the mean was considered an outlier and was excluded from the data analysis. […]

Sprague Dawley rats = test: Bennett model of mechanical analgesia (paw withdrawal threshold); type: in vivo, rat; details: 0.1-10 mg/kg PO; tested 1 h, 24 hrs and 1 week post-dosing
Protocol: Bennett G J, Xie Y K, “A peripheral mononeuropathy in rat that produces disorders of pain sensation like those seen in man,” Pain 33:87-107, 1988. […] Vehicle animals receive the surgery and then receive vehicle rather than test compound. Animals were tested 1 hr, 24 h and 1 wk post-test compound or vehicle administration.
Male 2-3 month old Sprague Dawley rats were used. Harlan was the supplier for all studies. Rats were housed in Lucite cages with aspen wood chip bedding, maintained on a 12:12 light:dark cycle (lights on at 5 AM), and given ad libitum access to Purina lab chow (USA) and tap water throughout the study.
Rats were anesthetized using inhaled isoflurane (2.5%). Spared nerve injury surgery was performed as previously described (Bennett and Xie, 1988). An incision (˜1.5 cm in length) was made with a scalpel blade dorsally through skin on the right hindlimb, parallel and posterior to femur. Using a small pointed hemostat, the biceps femoris and gluteus superficialis muscles were separated. Using curved blunt forceps, the common sciatic nerve was isolated and exposed. For the mechanical analgesia studies, the whole sciatic nerve was ligated. Using hemostats/forceps and chromic gut (5-0), the nerve was loosely ligated with a square knot; 3 ligatures, 1 mm apart were placed on the nerve. […]

- fraction unbound [1]: 0.65
- Kp ([2]; CSF, read-out: CSF/plasma ratio): 0.48
- Kp ([2]; brain, read-out: Brain/plasma ratio): 0.12
- bioavailability ([2]; plasma, PO administration (10 mg/kg PO, 2 mg/kg IV), male Sprague Dawley rats, read-out: Bioavailablity (% F)): 82%
- NR2D A (%) (activity) (NR2D; potentiation of [3H]MK-801 binding): 57.41%
- EC50 (NR2D; potentiation of [3H]MK-801 binding, 0 = no activity, read-out: NR2D P (M) (potency) (converted)): 5.62e-11 M
- NMDAR2D BINDING PROFILE % 1 mM Glycine (NR2D; relative to 1 mM glycine): 57.41%
- binding to NR2D (in words) (NR2D; statement in description): binds
- NMDAR2D BINDING PROFILE Conclusion (NR2D; wild-type NMDAR2D): WT2D agonist
- EC50 (NR2D; wild-type NMDAR2D, read-out: NMDAR2D BINDING PROFILE −logEC50 (converted)): 5.62e-11 M
Structure (SMILES): C[C@@H](O)[C@@H](C(N)=O)N1C[C@@]2(CCCN2S(C)(=O)=O)C1=O [Compound BB, (2S,3R)-3-hydroxy-2-((S)-5-(methylsulfonyl)-1-oxo-2,5-diazaspiro[3,4]octan-2-yl)butanamide]
- latency to eat in the novelty-induced hypophagia (NIH) test (SD rats): produces an anxiolytic effect
- analgesic effects (paw withdrawal threshold) (Sprague Dawley rats): analgesic effects
